Laboratory results: patent US20070049564A1 (Wyeth, priority 2005, published 2007)
Values after ≈ are worked out from the molar mass of the structure shown. Read-outs that look alike come from different tables or passages of the source.

Assays:
[1] = test system: E. coli GC 2271; test: MIC, broth microdilution; details: Escherichia coli
[2] = test system: S. agalactiae GC 4564; test: MIC, broth microdilution; details: Streptococcus agalactiae
[3] = test system: S. pyogenes GC 4563; test: MIC, broth microdilution; details: Streptococcus pyogenes
[4] = test system: S. aureus GC 4536; test: MIC, broth microdilution; details: Staphylococcus aureus
[5] = test system: E. coli GC 2232; test: MIC, broth microdilution; details: Escherichia coli
[6] = test system: S. aureus GC 2216; test: MIC, broth microdilution; details: Staphylococcus aureus
[7] = test system: Staph. aureus Smith; test: In vivo activity (oral, iv; ED50) against Staph. aureus Smith in mice
Method: Representative examples of compounds of Formula I were tested for the oral efficacy using S. aureus Smith in mice.

[8] = test system: S. pneumoniae+ GC 4465; test: MIC, broth microdilution; details: Streptococcus pneumoniae
[9] = test system: S. aureus GC 6335; test: MIC, broth microdilution; details: Staphylococcus aureus
[10] = test system: E. coli GC 2270; test: MIC, broth microdilution; details: Escherichia coli
[11] = test system: E. coli GC 3226; test: MIC, broth microdilution; details: Escherichia coli
[12] = test system: E. coli; test: Range of MIC for E. coli strains; details: Escherichia coli
[13] = test system: E. faecalis GC 2242; test: MIC, broth microdilution; details: Enterococcus faecalis
[14] = test system: P. aeruginosa GC 2214; test: MIC, broth microdilution; details: Pseudomonas aeruginosa
[15] = test system: E. coli GC 4559; test: MIC, broth microdilution; details: Escherichia coli
[16] = test system: E. faecium GC 2243; test: MIC, broth microdilution; details: Enterococcus faecium
[17] = test system: E. faecalis GC 2265; test: MIC, broth microdilution; details: Enterococcus faecalis
[18] = test system: S. aureus GC 6469; test: MIC, broth microdilution; details: Staphylococcus aureus
[19] = test system: c. albicans GC 3066; test: MIC, broth microdilution
[20] = test system: E. coli GC 1073; test: MIC, broth microdilution; details: Escherichia coli

## CCCCN(CC(=O)Nc1cc(N(C)C)c2c(c1O)C(=O)C1=C(O)[C@]3(O)C(=O)C(C(N)=O)=C(O)[C@@H](N(C)C)[C@@H]3C[C@@H]1C2)C(=O)OCOC(=O)c1cc(C)cc(C)c1 [Example 22, ({[(2-{[(5aR,6aS,7S,10aS)-9-(aminocarbonyl)-4,7-bis(dimethylamino)-1,8,10a,11-tetrahydroxy-10,12-dioxo-5,5a,6,6a,7,10,10a,12-octahydrotetracen-2-yl]amino}-2-oxoethyl)(butyl)amino]carbonyl}oxy)methyl 3,5-dimethylbenzoate]
[1]; GC2271, read-out: MINIMAL INHIBITORY CONCENTRATION MIC, pre-incubated in Mouse Serum
  MIC: 1 µg/mL (≈ 1.26 µM)
[1]; GC2271, read-out: MINIMAL INHIBITORY CONCENTRATION MIC, pre-incubated in Water
  MIC: > 64 µg/mL
[2]; GC4564, read-out: MINIMAL INHIBITORY CONCENTRATION MIC, pre-incubated in Mouse Serum
  MIC: 1 µg/mL (≈ 1.26 µM)
[2]; GC4564, read-out: MINIMAL INHIBITORY CONCENTRATION MIC, pre-incubated in Water
  MIC: 8 µg/mL (≈ 10.1 µM)
[3]; GC4563, read-out: MINIMAL INHIBITORY CONCENTRATION MIC, pre-incubated in Mouse Serum
  MIC: 0.5 µg/mL (≈ 0.631 µM)
[3]; GC4563, read-out: MINIMAL INHIBITORY CONCENTRATION MIC, pre-incubated in Water
  MIC: 1 µg/mL (≈ 1.26 µM)
[4]; GC4536, read-out: MINIMAL INHIBITORY CONCENTRATION MIC, pre-incubated in Mouse Serum
  MIC: 1 µg/mL (≈ 1.26 µM)
[4]; GC4536, read-out: MINIMAL INHIBITORY CONCENTRATION MIC, pre-incubated in Water
  MIC: 2 µg/mL (≈ 2.53 µM)
[5]; GC2232, read-out: MINIMAL INHIBITORY CONCENTRATION MIC, pre-incubated in Mouse Serum
  MIC: 2 µg/mL (≈ 2.53 µM)
[5]; GC2232, read-out: MINIMAL INHIBITORY CONCENTRATION MIC, pre-incubated in Water
  MIC: > 64 µg/mL
[6]; GC2216, read-out: MINIMAL INHIBITORY CONCENTRATION MIC, pre-incubated in Mouse Serum
  MIC: 1 µg/mL (≈ 1.26 µM)
[6]; GC2216, read-out: MINIMAL INHIBITORY CONCENTRATION MIC, pre-incubated in Water
  MIC: 4 µg/mL (≈ 5.05 µM)
[7]; Staphylococcus aureus, in Mus musculus, po, read-out: ED50 Staph Smith SOD
  ED50: 18.8 mg/kg
[7]; iv, read-out: ED50 Staph Smith SIV
  ED50: 0.43 mg/kg
[8]; read-out: MINIMAL INHIBITORY CONCENTRATION MIC, pre-incubated in Mouse Serum
  MIC: 4 µg/mL (≈ 5.05 µM)
[8]; read-out: MINIMAL INHIBITORY CONCENTRATION MIC, pre-incubated in Water
  MIC: 16 µg/mL (≈ 20.2 µM)
[9]; GC6335, read-out: MINIMAL INHIBITORY CONCENTRATION MIC, pre-incubated in Mouse Serum
  MIC: 2 µg/mL (≈ 2.53 µM)
[9]; GC6335, read-out: MINIMAL INHIBITORY CONCENTRATION MIC, pre-incubated in Water
  MIC: 8 µg/mL (≈ 10.1 µM)
[10]; GC2270, read-out: MINIMAL INHIBITORY CONCENTRATION MIC, pre-incubated in Mouse Serum
  MIC: 1 µg/mL (≈ 1.26 µM)
[10]; GC2270, read-out: MINIMAL INHIBITORY CONCENTRATION MIC, pre-incubated in Water
  MIC: > 64 µg/mL
[11]; GC3226, read-out: MINIMAL INHIBITORY CONCENTRATION MIC, pre-incubated in Mouse Serum
  MIC: 8 µg/mL (≈ 10.1 µM)
[11]; GC3226, read-out: MINIMAL INHIBITORY CONCENTRATION MIC, pre-incubated in Water
  MIC: > 64 µg/mL
[12]; 20 h, read-out: Range of MIC, E. coli (Mouse Serum)
  MIC: 1 to 8 µg/mL (≈ 1.26 to 10.1 µM)
[12]; read-out: Minimum inhibitory concentration (MIC), E. coli (mouse serum)
  MIC: 1 to 8 µg/mL (≈ 1.26 to 10.1 µM)
[12]; read-out: Minimum inhibitory concentration (MIC), E. coli (water)
  MIC: > 64 µg/mL
[12]; read-out: Range of MIC, E. coli (Water)
  MIC: > 64 µg/mL
[13]; GC2242, read-out: MINIMAL INHIBITORY CONCENTRATION MIC, pre-incubated in Mouse Serum
  MIC: 2 µg/mL (≈ 2.53 µM)
[13]; GC2242, read-out: MINIMAL INHIBITORY CONCENTRATION MIC, pre-incubated in Water
  MIC: 32 µg/mL (≈ 40.4 µM)
[14]; GC2214, read-out: MINIMAL INHIBITORY CONCENTRATION MIC, pre-incubated in Mouse Serum
  MIC: > 64 µg/mL
[14]; GC2214, read-out: MINIMAL INHIBITORY CONCENTRATION MIC, pre-incubated in Water
  MIC: > 64 µg/mL
[15]; GC4559, read-out: MINIMAL INHIBITORY CONCENTRATION MIC, pre-incubated in Mouse Serum
  MIC: 2 µg/mL (≈ 2.53 µM)
[15]; GC4559, read-out: MINIMAL INHIBITORY CONCENTRATION MIC, pre-incubated in Water
  MIC: > 64 µg/mL
[16]; GC2243, read-out: MINIMAL INHIBITORY CONCENTRATION MIC, pre-incubated in Mouse Serum
  MIC: 1 µg/mL (≈ 1.26 µM)
[16]; GC2243, read-out: MINIMAL INHIBITORY CONCENTRATION MIC, pre-incubated in Water
  MIC: 8 µg/mL (≈ 10.1 µM)
[17]; GC2265, read-out: MINIMAL INHIBITORY CONCENTRATION MIC, pre-incubated in Mouse Serum
  MIC: 2 µg/mL (≈ 2.53 µM)
[17]; GC2265, read-out: MINIMAL INHIBITORY CONCENTRATION MIC, pre-incubated in Water
  MIC: 64 µg/mL (≈ 80.8 µM)
[18]; GC6469, read-out: MINIMAL INHIBITORY CONCENTRATION MIC, pre-incubated in Mouse Serum
  MIC: 4 µg/mL (≈ 5.05 µM)
[18]; GC6469, read-out: MINIMAL INHIBITORY CONCENTRATION MIC, pre-incubated in Water
  MIC: 64 µg/mL (≈ 80.8 µM)
[19]; Candida albicans, GC3066, read-out: MINIMAL INHIBITORY CONCENTRATION MIC
  MIC: > 64 µg/mL
[19]; pre-incubated in Water
  MINIMAL INHIBITORY CONCENTRATION MIC: >64 UG/ML
[20]; GC1073, read-out: MINIMAL INHIBITORY CONCENTRATION MIC, pre-incubated in Mouse Serum
  MIC: 2 µg/mL (≈ 2.53 µM)
[20]; GC1073, read-out: MINIMAL INHIBITORY CONCENTRATION MIC, pre-incubated in Water
  MIC: > 64 µg/mL
